# Assay results: patent US5824683A, “2'-[[4'-h alo-[1,1'-biphenyl]-4-yl]methyl]-5'-methyl-spiro[cyclopentane-1,7' (8'H)-[3H] imidazo[2,1-b]purin]-4' (5'H)-ones” (Schering Corporation, priority 1996, dated 1998)
# Key:
# [1] = tested on: spontaneously hypertensive rats (SHR); assay: Antihypertensive activity in conscious spontaneously hypertensive rats (SHR); type: in vivo, rat; details: 10 mpk po, fasted overnight, mean blood pressure
# Experimental: The ability of the compounds of the present invention to lower blood pressure can be assessed in vivo in conscious spontaneously hypertensive rats (SHR). SHR males are purchased from Taconic Farms, Germantown New York and are approximately 16-18 weeks old when anesthetized with ether. The caudal (ventral tail) artery is cannulated with polyethylene tubing (PESO) and blood pressure and heart rate are recorded as described by Baum, T. et. al, J. Cardiovasc. Pharmacol. Vol 5, pp. 655-667, (1983). Rats are placed into plastic cylindrical cages where they rapidly recover consciousness. Blood pressure and heart rate are allowed to stabilize for approximately 90 minutes prior to compound administration. Compounds are administered orally as solutions or suspensions in 0.4% aqueous methylcellulose vehicle via a feeding needle. The compound or 0.4% aqueous methylcellulose vehicle are given in a volume of 4 ml/kg to SHRs that had been fasted overnight. Activity is expressed as the fall in mean blood pressure (MBP) in millimeters of mercury (mm Hg). Compound-induced changes are compared with the changes in an appropriate placebo group.
# [2] = Plasma levels in SHR after oral dosing; type: in vivo; details: rat, 10 mg/kg, 10 mpk orally, sampled 0.5, 1, 2, 3 and 4 hours, read-out: Plasma Level AUC
# Experimental: SHRs dosed orally with test compound at 10 mpk and plasma levels were subsequently measured at intervals of 0.5, 1, 2, 3 and 4 hours. Plasma levels (μg/ml) were plotted versus hours post dosing and the area under the curve (AUC, μghr/ml) was calculated.
# [3] = target: T1, PDE Type V (cGMP phosphodiesterase, cGMP-PDE) (Bos taurus, UniProt Q28156); assay: Phosphodiesterase inhibition in vitro, Type V (cGMP phosphodiesterase, cGMP-PDE); type: biochemical; details: cGMP-PDE from bovine lung; 1 μM 3H-cGMP substrate; pH 7.5; 25 minutes, room temperature
# T1 construct: homogeneous enzyme obtained from bovine lung and purified by ion-exchange chromatography, gel filtration, and sucrose gradient centrifugation; from tissue; host or cells: bovine lung
# [4] = target: T2, PDE Type I (calcium-calmodulin dependent phosphodiesterase, CaM-PDE) (Bos taurus, UniProt P14100); assay: Phosphodiesterase inhibition in vitro, Type I (calcium-calmodulin dependent phosphodiesterase, CaM-PDE); type: biochemical; details: CaM-PDE from bovine aorta; 1 μM 3H-cGMP substrate; pH 7.5; 25 minutes, room temperature
# T2 construct: from tissue; host or cells: bovine aorta
SMILES,SHR Antihypertensive: Fall in MBP [1] [mmHg],AUC at 4 h [2] [ng·h/mL],IC50 [3] [nM],IC50 [4] [nM]
CN1C(=O)c2[nH]c(Cc3ccc(-c4ccc(F)cc4)cc3)nc2N2CC3(CCCC3)N=C12 [Example 3],-35,7730,520,9
"COc1ccc(-c2ccc(Cc3nc4c([nH]3)C(=O)N(C)C3=NC5(CCCC5)CN34)cc2)cc1 [Ref. Cpd., 2'-[[(4'-methoxy-1,1'-biphenyl) -4-yl]methyl]-5'-methyl-spiro[cyclopentane-1,7'(8'H)-[3H]imidazo-[2,1-b]purin]-4'(5'H)-one, reference compound]",-35,3340,500,5
CN1C(=O)c2[nH]c(Cc3ccc(-c4ccc(Br)cc4)cc3)nc2N2CC3(CCCC3)N=C12 [Example 2],-11,5890,210,12
CN1C(=O)c2[nH]c(Cc3ccc(-c4ccc(Cl)cc4)cc3)nc2N2CC3(CCCC3)N=C12 [Example 1],-24,4800,170,11
